Test results taken from US9926330B2, “Inhibitors of IRAK4 activity” (MERCK SHARP & DOHME CORP., priority 2014, dated 2018).

Target: GST tagged IRAK4 (Homo sapiens (Human), UniProt Q9NWZ3)
Experiment: IRAK4 Kinase Assay (IMAP fluorescence polarization)
Assay type: biochemical
Details: 0.5 nM GST tagged IRAK4, 100 nM fluorescent peptide substrate RP7030, 100 μM ATP, 30 minutes at 25° C., IMAP FP readout
Protocol: The kinase activity of IRAK4 is determined by its ability to catalyze the phosphorylation of a fluorescent polypeptide substrate. The extent of phosphorylation is measured using the IMAP technology (Molecular Devices) where the phosphorylated fluorescent substrate binds to the large M(III)-based nanoparticles which reduces the rotational speed of the substrate and thus increases its fluorescent polarization (FP).
20 μL reaction mixture contains 10 mM TriHCl, pH 7.2, 0.5 nM GST tagged IRAK4 (SignalChem), 100 nM fluorescent peptide substrate (RP7030, Molecular Devices), 100 μM ATP, 1 mM DDT, 1 mM MgCl2, and 0.01% Tween 20. The reaction is initiated by the addition of ATP. After incubation for 30 minutes at 25° C., 60 μL of Progressive IMAP Reagent (Molecular Devices) is added to stop the reaction. Change in RP7030's FP is determined by a FP reader (Analyst HT, LJL BioSystems).

Chain of GST tagged IRAK4 (Q9NWZ3 whole entry): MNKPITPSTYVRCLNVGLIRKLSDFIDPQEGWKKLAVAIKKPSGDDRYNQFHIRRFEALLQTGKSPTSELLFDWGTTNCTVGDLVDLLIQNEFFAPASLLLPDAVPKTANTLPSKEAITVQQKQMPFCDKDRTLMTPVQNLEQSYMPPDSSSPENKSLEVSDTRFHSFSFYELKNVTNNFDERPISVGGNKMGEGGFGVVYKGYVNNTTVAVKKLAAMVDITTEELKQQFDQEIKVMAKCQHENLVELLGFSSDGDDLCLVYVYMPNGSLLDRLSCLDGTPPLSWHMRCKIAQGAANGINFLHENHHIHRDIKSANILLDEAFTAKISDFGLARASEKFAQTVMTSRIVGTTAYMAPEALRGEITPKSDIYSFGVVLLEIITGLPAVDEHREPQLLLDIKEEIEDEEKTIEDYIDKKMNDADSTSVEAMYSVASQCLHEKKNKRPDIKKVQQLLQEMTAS

Q: Which IC50 does the source give for `Cc1ccc2ncnc(N[C@H]3CC[C@H](NCCC(F)(F)F)CC3)c2c1` [Example 2-28, trans-N-(6-methylquinazolin-4-yl)-N′-(3,3,3-trifluoropropyl)cyclohexane-1,4-diamine] here?
A: 25 nM

Q: With `Cc1ccc2ncnc(N[C@H]3CC[C@H](NCC(C)(C)C)CC3)c2c1` [Example 2-29, trans-N-(2,2-dimethylpropyl)-N′-(6-methylquinazolin-4-yl)cyclohexane-1,4-diamine] as the compound, how does the IC50 read?
A: 69 nM

Q: How did the IC50 turn out when `Cc1ccc2ncnc(N[C@H]3CC[C@H](N[C@@H](C)C(F)F)CC3)c2c1` [Example 2-30, trans-N-[(1S)-2,2-difluoro-1-methylethyl]-N′-(6-methylquinazolin-4-yl)cyclohexane-1,4-diamine] was run?
A: 126 nM

Q: For `Cc1ccc2ncnc(N[C@H]3CC[C@H](N[C@@H](C)CS(C)(=O)=O)CC3)c2c1` [Example 2-31, trans-N-[(1S)-1-methyl-2-(methylsulfonyl)ethyl]-N′-(6-methylquinazolin-4-yl)cyclohexane-1,4-diamine], which IC50 is on record?
A: 56 nM

Q: Which IC50 does the source give for `CN(C)[C@H]1CC[C@H](Nc2ncnc3ccc(/C=C/C4CC4)cc23)CC1` [Example 3-1, (trans)-N1-(6-((E)-2-cyclopropylvinyl)quinazolin-4-yl)-N4,N4-dimethylcyclohexane-1,4-diamine] here?
A: 145 nM

Q: How did the IC50 turn out when `C=Cc1ccc2ncnc(NC3CCC(N(C)C)CC3)c2c1` (stereo not drawn) [Example 3-2, N′-(6-ethenylquinazolin-4-yl)-N,N-dimethylcyclohexane-1,4-diamine] was run?
A: 7 nM

Q: With `COC/C=C/c1ccc2ncnc(N[C@H]3CC[C@H](N(C)C)CC3)c2c1` [Example 3-3, trans-N′-{6-[(1E)-3-methoxyprop-1-en-1-yl]quinazolin-4-yl}-N,N-dimethylcyclohexane-1,4-diamine] as the compound, how does the IC50 read?
A: 54 nM

Q: With `CCc1ccc2ncnc(N[C@H]3CC[C@H](N4CCOCC4)CC3)c2c1` [Example 3-4, 6-ethyl-N-(trans-4-morpholin-4-ylcyclohexyl)quinazolin-4-amine] as the compound, how does the IC50 read?
A: 8 nM

Q: Which IC50 does the source give for `N#CCCCc1ccc2ncnc(N[C@H]3CC[C@H](N4CCOCC4)CC3)c2c1` [Example 3-5, 4-(4-(((trans)-4-morpholinocyclohexyl)amino)quinazolin-6-yl)butanenitrile] here?
A: 142 nM

Q: Which IC50 does the source give for `CCc1ccc2ncnc(N[C@H]3CC[C@H](N(C)C)CC3)c2c1` [Example 4-1, (trans)-N1-(6-ethylquinazolin-4-yl)-N4,N4-dimethylcyclohexane-1,4-diamine] here?
A: 18 nM

Q: Which IC50 does the source give for `CC(C)c1ccc2ncnc(NC3CCC(N(C)C)CC3)c2c1` (stereo not drawn) [Example 4-2, N,N-dimethyl-N′-[6-(1-methylethyl)quinazolin-4-yl]cyclohexane-1,4-diamine] here?
A: 16 nM

Q: `CCCCc1ccc2ncnc(N[C@H]3CC[C@H](N4CCOCC4)CC3)c2c1` [Example 4-3, 6-butyl-N-(trans-4-morpholin-4-ylcyclohexyl)quinazolin-4-amine] was tested. Which IC50 did it give?
A: 34 nM

Q: With `CCCc1ccc2ncnc(N[C@H]3CC[C@H](N4CCOCC4)CC3)c2c1` [Example 4-4, N-(trans-4-morpholin-4-ylcyclohexyl)-6-propylquinazolin-4-amine] as the compound, how does the IC50 read?
A: 11 nM

Q: Which IC50 does the source give for `CN(C)[C@H]1CC[C@H](Nc2ncnc3ccc(CCO)cc23)CC1` [Example 5-1, 2-(4-(((trans)-4-(dimethylamino)cyclohexyl)amino)quinazolin-6-yl)ethan-1-ol] here?
A: 17 nM

Q: How did the IC50 turn out when `OCCCc1ccc2ncnc(N[C@H]3CC[C@H](N4CCOCC4)CC3)c2c1` [Example 5-2, 3-{4-[(trans-4-morpholin-4-ylcyclohexyl)amino]quinazolin-6-yl}propan-1-ol] was run?
A: 10 nM

Q: With `OCCCCc1ccc2ncnc(N[C@H]3CC[C@H](N4CCOCC4)CC3)c2c1` [Example 5-3, 4-{4-[(trans-4-morpholin-4-ylcyclohexyl)amino]quinazolin-6-yl}butan-1-ol] as the compound, how does the IC50 read?
A: 68 nM

Q: For `CC(O)c1ccc2ncnc(N[C@H]3CC[C@H](N(C)C)CC3)c2c1` (stereo partly drawn) [Example 5-4, 1-(4-{[trans-4-(dimethylamino)cyclohexyl]amino}quinazolin-6-yl)ethanol], which IC50 is on record?
A: 29 nM

Q: Which IC50 does the source give for `Cc1ccc2ncnc(N[C@H]3CC[C@H](N4CCS(=O)(=O)CC4)CC3)c2c1` [Example 6-1, 4-((trans)-4-((6-methylquinazolin-4-yl)amino)cyclohexyl)thiomorpholine-1,1-dioxide] here?
A: 623 nM

Q: `Cc1ccc2ncnc(N[C@H]3CC[C@H](N4CC5(COC5)C4)CC3)c2c1` [Example 6-2, N-((trans)-4-(2-oxa-6-azaspiro[3.3]heptan-6-yl)cyclohexyl)-6-methylquinazolin-4-amine] was tested. Which IC50 did it give?
A: 101 nM

Q: Which IC50 does the source give for `CC(O)CCc1ccc2ncnc(N[C@H]3CC[C@H](N4CCOCC4)CC3)c2c1` (stereo partly drawn) [Example 7-1, 4-(4-(((trans)-4-Morpholinocyclohexyl)amino)quinazolin-6-yl)butan-2-ol] here?
A: 62 nM

Q: With `CN(C)[C@H]1CC[C@H](Nc2ncnc3ccc(CO)cc23)CC1` [Example 8-1, (4-(((trans)-4-(dimethylamino)cyclohexyl)amino)quinazolin-6-yl)methanol] as the compound, how does the IC50 read?
A: 29 nM
